The record followed here is patent US20240376097A1, “BCL-2 Inhibitor” (BeiGene Ltd., priority 2020, published 2024).

What all share (type): binding
In test [1] the target is recombinant human Bcl-2 D103Y protein (Homo sapiens (Human), UniProt P10415, D103Y). Nature of the test: Bcl-2-D103Y Biochemical Assay (TR-FRET). To be noted: for IC50: TR-FRET, FITC labeled Bak peptide; for Ratio of Bcl-2 D103Y/Bcl-2 WT: ratio of IC50. On the procedure: Biological Example: Bcl-2-D103Y Biochemical Assay
[…]. The TR-FRET signals (ex337 nm, em490 nm/520 nm) were read on BMG PHERAstar FSX instrument. The inhibition percentage of Bcl-2 D103Y interaction with its ligand in presence of increasing concentrations of compounds was calculated based on the ratio of fluorescence at 490 nm to that at 520 nm. The IC50 for each compound was derived from fitting the data to the four-parameter logistic equation by Dotmatics.

In test [2] the target is Recombinant human Bcl-2 protein (Homo sapiens (Human), UniProt P10415). Nature of the test: Bcl-2 TR-FRET Assay. The method, then:
Biological Example: Bcl-2 TR-FRET Assay
Compounds disclosed herein were tested for blocking of Bcl-2 protein with its ligand in an assay based on Time-Resolved Fluorescence Resonance Energy Transfer (TR-FRET) methodology. Recombinant human 0.05 nM Bcl-2 protein was pre-incubated with a serial dilution of compounds disclosed herein (top final concentration is 1 uM or 0.1 uM or 0.02 uM or 0.01 uM, 10 points) at room temperature for 0.5 hour in an assay buffer containing 20 mM potassium phosphate buffer, pH 7.5, 50 mM NaCl. 1 mM EDTA, 0.05% Tween-20, 0.01% BSA. Then the FITC labeled Bak peptide Ac-GQVGRQLAIIGDK(FITC)INR-amide (0.5 nM) and MAb Anti 6His Tb cryptate Gold were added to plate and further incubated at room temperature for 1 hour. The TR-FRET signals (337 nm-520 nm-490 nm) were read on BMG PHERAstar FSX instrument. The inhibition percentage of Bcl-2 interaction with its ligand in presence of increasing concentrations of compounds was calculated based on the TR-FRET signals. The IC50 for each compound was derived from fitting the data to the four-parameter logistic equation by Graphpad Prism software or Dotmatics.

The target in test [3] is recombinant human Bcl-2-G101V protein (Homo sapiens (Human), UniProt P10415, G101V). Nature of the test: Bcl-2-G101V TR-FRET Assay. To be noted: Bcl-2 G101V mutant, TR-FRET; read-out: Biochemical assay (IC50, nM) Bcl-2 G101V. On the procedure:
(§1) Biological Example: Bcl-2-G101V TR-FRET Assay
(§2) […]. The TR-FRET signals (ex337 nm, em490 nm/520 nm) were read on BMG PHERAstar FSX instrument. The inhibition percentage of Bcl-2-G101V interaction with its ligand in presence of increasing concentrations of compounds was calculated based on the ratio of fluorescence at 490 nm to that at 520 nm. The IC50 for each compound was derived from fitting the data to the four-parameter logistic equation by Graphpad Prism software or Dotmatics.

Test [4] has as its system recombinant human Bcl-2-G101V protein. Nature of the test: Bcl-2-G101V TR-FRET Assay. To be noted: for Ratio of Bcl-2 G101V/WT: ratio of biochemical IC50 Bcl-2 G101V / Bcl-2 WT. The method, then:
as §1, §2

[5] abbreviates: wild type Bcl-2, unit inferred, read-out: Bcl-2 WT.
The mark [6] stands for this setting: Bcl-2 wild type, TR-FRET, read-out: Biochemical assay (IC50, nM) Bcl-2 WT.

Like-named read-outs stand apart in the source and are kept apart here.

For `COc1ccc(CN2CCN(C3CC4(C3)CN(c3ccc(C(=O)NS(=O)(=O)c5ccc(NC[C@H]6CC[C@](C)(O)CC6)c([N+](=O)[O-])c5)c(Oc5cnc6[nH]cc(Cl)c6c5)c3)C4)[C@H](c3ccccc3C(C)C)C2)cc1` [Example 207, 2-((3-chloro-1H-pyrrolo[2,3-b]pyridin-5-yl)oxy)-N-((4-((((1r,4r)-4-hydroxy-4-methylcyclohexyl)methyl)amino)-3-nitrophenyl)sulfonyl)-4-(6-((R)-2-(2-isopropylphenyl)-4-(4-methoxybenzyl)piperazin-1-yl)-2-azaspiro[3.3]heptan-2-yl) benzamide], in test [1], the IC50 was 220 pM and the “Ratio of Bcl-2 D103Y/Bcl-2 WT” value amounted to 1.1. The IC50 in test [2] (setting [5]) is 0.2 nM.
For `COc1cc(CN2CCN(C3CC4(C3)CN(c3ccc(C(=O)NS(=O)(=O)c5ccc(NC[C@H]6CC[C@](C)(O)CC6)c([N+](=O)[O-])c5)c(Oc5cnc6[nH]cc(F)c6c5)c3)C4)[C@H](c3ccccc3C(C)C)C2)ccc1C(F)(F)F` [Example 289, 2-((3-fluoro-1H-pyrrolo[2,3-b]pyridin-5-yl)oxy)-N-((4-((((1r,4r)-4-hydroxy-4-methylcyclohexyl)methyl)amino)-3-nitrophenyl)sulfonyl)-4-(6-((R)-2-(2-isopropylphenyl)-4-(3-methoxy-4-(trifluoromethyl)benzyl)piperazin-1-yl)-2-azaspiro[3.3]heptan-2-yl) benzamide], the values for the IC50 in test [3] and in test [2] (setting [6]) were 4 nM and 1.7 nM, respectively. Also, in test [4], the “Ratio of Bcl-2 G101V/WT” value was 2.3.
As to `COc1ccc(N2CCCC(N3CCN(C4CC5(CCN(c6ccc(C(=O)NS(=O)(=O)c7ccc(NC[C@H]8CC[C@](C)(O)CC8)c([N+](=O)[O-])c7)c(Oc7cnc8[nH]ccc8c7)c6)CC5)C4)C(c4ccccc4C(C)C)C3)C2)cc1` (stereo partly shown) [Example 139, 2-((1H-pyrrolo[2,3-b]pyridin-5-yl)oxy)-N-((4-((((1r,4r)-4-hydroxy-4-methylcyclohexyl)methyl)amino)-3-nitrophenyl)sulfonyl)-4-(2-(2-(2-isopropylphenyl)-4-(1-(4-methoxyphenyl)piperidin-3-yl)piperazin-1-yl)-7-azaspiro[3.5]nonan-7-yl)benzamide], the IC50 in test [3] was determined as 5.6 nM; in test [2] (setting [6]), 0.65 nM. The “Ratio of Bcl-2 G101V/WT” value in test [4] is recorded as 8.7.
For the molecule `COc1ccc(C(=O)N2CCN(C3CC4(CCN(c5ccc(C(=O)NS(=O)(=O)c6ccc(NC[C@H]7CC[C@](C)(O)CC7)c([N+](=O)[O-])c6)c(Oc6cnc7[nH]ccc7c6)c5)CC4)C3)C(c3ccccc3C(C)C)C2)cc1` (stereo partly shown) [Example 61, 2-((1H-pyrrolo[2,3-b]pyridin-5-yl)oxy)-N-((4-((((1r,4r)-4-hydroxy-4-methylcyclohexyl)methyl)amino)-3-nitrophenyl)sulfonyl)-4-(2-(2-(2-isopropylphenyl)-4-(4-methoxybenzoyl)piperazin-1-yl)-7-azaspiro[3.5]nonan-7-yl) benzamide], the “ratio of IC50 of Bcl-2 G101V/Bcl-2 wt, compared with Example F132b in WO2019210828 and ABT-199 (venetoclax)” value in test [4] (comparison in words) is on record as “much lower”.
For `CC(C)c1ccccc1C1CN(C2COC2)CCN1C1CC2(CCN(c3ccc(C(=O)NS(=O)(=O)c4ccc(NC[C@H]5CC[C@](C)(O)CC5)c([N+](=O)[O-])c4)c(Oc4cnc5[nH]ccc5c4)c3)CC2)C1` (single isomer, unassigned) [Example 6a, 2-((1H-pyrrolo[2,3-b]pyridin-5-yl)oxy)-N-((4-((((1r,4r)-4-hydroxy-4-methylcyclohexyl)methyl)amino)-3-nitrophenyl)sulfonyl)-4-(2-((S or R)-2-(2-isopropylphenyl)-4-(oxetan-3-yl)piperazin-1-yl)-7-azaspiro[3.5]nonan-7-yl)benzamide], the IC50 stood at 110 pM in test [1] and 0.0078 nM in test [2] (setting [5]).
On to `COc1ccc(CN2CCN(C3CC4(CCN(c5ccc(C(=O)NS(=O)(=O)c6ccc(NCC7CCC(CO)O7)c([N+](=O)[O-])c6)c(Oc6cnc7[nH]ccc7c6)c5)CC4)C3)[C@H](c3ccccc3C(C)C)C2)cc1` (stereo partly drawn) [Example 220, 2-((1H-pyrrolo[2,3-b]pyridin-5-yl)oxy)-N-((4-(((5-(hydroxymethyl)tetrahydrofuran-2-yl)methyl)amino)-3-nitrophenyl)sulfonyl)-4-(2-((R)-2-(2-isopropylphenyl)-4-(4-methoxybenzyl)piperazin-1-yl)-7-azaspiro[3.5]nonan-7-yl) benzamide], for which the IC50 worked out at 77 pM in test [1] and 0.044 nM in test [2] (setting [5]). Moreover, the “Ratio of Bcl-2 D103Y/Bcl-2 WT” value in test [1] is given as 1.8.
Take `COc1ccc(N(C)C2CCN(C3CC4(CCN(c5ccc(C(=O)NS(=O)(=O)c6ccc(NC[C@H]7CC[C@](C)(O)CC7)c([N+](=O)[O-])c6)c(Oc6cnc7[nH]ccc7c6)c5)CC4)C3)C(c3ccccc3C(C)C)C2)cc1` (stereo partly shown) [Example 150]: in test [1], the IC50 was 530 pM and the “Ratio of Bcl-2 D103Y/Bcl-2 WT” value is listed as 4.1. Moreover, the IC50 in test [2] (setting [5]) stood at 0.13 nM.
For `CC(C)c1ccccc1[C@@H]1CN(Cc2cnn(C)c2)CCN1C1CC2(CCN(c3ccc(C(=O)NS(=O)(=O)c4ccc(NC[C@H]5CC[C@](C)(O)CC5)c([N+](=O)[O-])c4)c(Oc4cnc5[nH]ccc5c4)c3)CC2)C1` (single isomer, unassigned) [Example 22a, 2-((1H-pyrrolo[2,3-b]pyridin-5-yl)oxy)-N-((4-((((1r,4r)-4-hydroxy-4-methylcyclohexyl)methyl)amino)-3-nitrophenyl)sulfonyl)-4-(2-((R or S)-2-(2-isopropylphenyl)-4-((1-methyl-1H-pyrazol-4-yl)methyl)piperazin-1-yl)-7-azaspiro [3.5]nonan-7-yl)benzamide], the “Ratio of Bcl-2 G101V/WT” value in test [4] is given as 8.1. In test [1] (comparison in words), the “ratio of Bcl-2 D103Y/Bcl-2 wt, compared with F91b in WO2019210828” value was “significantly lower”. Also, the “Ratio of Bcl-2 D103Y/Bcl-2 WT” value in test [1] was 5.2.
Consider `CC(C)c1ccccc1[C@H]1CN(C2COC2)CCN1C1CC2(CCN(c3ccc(C(=O)NS(=O)(=O)c4ccc(NC[C@H]5CC[C@](C)(O)CC5)c([N+](=O)[O-])c4)c(Oc4cnc5[nH]ccc5c4)c3)CC2)C1` (single isomer, unassigned) [Example 6a, 2-((1H-pyrrolo[2,3-b]pyridin-5-yl)oxy)-N-((4-((((1r,4r)-4-hydroxy-4-methylcyclohexyl)methyl)amino)-3-nitrophenyl)sulfonyl)-4-(2-((S or R)-2-(2-isopropylphenyl)-4-(oxetan-3-yl)piperazin-1-yl)-7-azaspiro[3.5]nonan-7-yl)benzamide], for which the “Ratio of Bcl-2 D103Y/Bcl-2 WT” value in test [1] came out at 13.
Turning to `CC(C)c1ccccc1C1CN(C(C)C)CCN1C1CC2(CCN(c3ccc(C(=O)NS(=O)(=O)c4ccc(NC[C@H]5CC[C@](C)(O)CC5)c([N+](=O)[O-])c4)c(Oc4cnc5[nH]ccc5c4)c3)CC2)C1` (stereo partly shown) [Example 3, 2-((1H-pyrrolo[2,3-b]pyridin-5-yl)oxy)-N-((4-((((1r,4r)-4-hydroxy-4-methylcyclohexyl)methyl)amino)-3-nitrophenyl)sulfonyl)-4-(2-(4-isopropyl-2-(2-isopropylphenyl)piperazin-1-yl)-7-azaspiro[3.5]nonan-7-yl)benzamide], in test [1], the IC50 stood at 110 pM and the “Ratio of Bcl-2 D103Y/Bcl-2 WT” value was determined as 11. For the same molecule, the IC50 in test [2] (setting [5]) amounted to 0.019 nM.
On the same counts, the results for `CC(C)c1ccccc1C1CN(Cc2ccc3occc3c2)CCN1C1CC2(CCN(c3ccc(C(=O)NS(=O)(=O)c4ccc(NC[C@H]5CC[C@](C)(O)CC5)c([N+](=O)[O-])c4)c(Oc4cnc5[nH]ccc5c4)c3)CC2)C1` (stereo partly shown) [Example 96, 2-((1H-pyrrolo[2,3-b]pyridin-5-yl)oxy)-4-(2-(4-(benzofuran-5-ylmethyl)-2-(2-isopropylphenyl)piperazin-1-yl)-7-azaspiro[3.5]nonan-7-yl)-N-((4-((((1r,4r)-4-hydroxy-4-methylcyclohexyl)methyl)amino)-3-nitrophenyl)sulfonyl)benzamide] are 230 pM, 5.6 and 0.041 nM.
